≈ marks a conversion by molar mass, not a printed value. Calls of active or inactive are those of the source. The rule behind the calls is not given here.
How the values were obtained:
[1] = tested on: KB; experiment: Cytotoxicity against human KB cells by resazurin microplate assay; type: functional, cell-based
[2] = tested on: Plasmodium falciparum; experiment: Antimalarial activity against Plasmodium falciparum K1 by microculture radioisotope technique; type: functional, organism-based
[3] = tested on: Mycobacterium tuberculosis; experiment: Antitubercular activity against Mycobacterium tuberculosis H37Ra by green fluorescent protein microplate assay; type: functional
[4] = tested on: Human alphaherpesvirus 1; experiment: Antiviral activity against HSV1 by green fluorescent protein microplate assay; type: functional, organism-based
[5] = tested on: NCI-H187; experiment: Cytotoxicity against human NCI-H187 cells by resazurin microplate assay; type: functional, cell-based
[6] = tested on: MCF7; experiment: Cytotoxicity against human MCF7 cells by resazurin microplate assay; type: functional, cell-based
[7] = tested on: Vero; experiment: Cytotoxicity against african green monkey Vero cells by green fluorescent protein microplate assay; type: cell-based; details: Chlorocebus sabaeus
[8] = Human alphaherpesvirus 1, read-out: IC50

CO[C@H]1[C@H](O)[C@@H](O)[C@H](Oc2cc(O)c3c(=O)oc(C)cc3c2)O[C@@H]1CO
Activity [1]: inactive | Activity [2]: inactive | MIC [3]: inactive | IC50 [4]: Not Active | Activity [5]: inactive

COc1cccc2c1C(=O)c1c(O)c3c(c(O)c1C2=O)C[C@@](O)(C(=O)CO)C[C@@H]3O[C@H]1C[C@H](N)[C@H](O)[C@H](C)O1 [DOXORUBICIN]
IC50 [1]: 0.144 µg/mL (≈ 0.265 µM) | IC50 [6]: 0.899 µg/mL (≈ 1.65 µM) | IC50 [5]: 0.058 µg/mL (≈ 0.107 µM)

CO[C@H]1[C@H](O)[C@@H](O)[C@H](OCc2cc3cc(O)cc(O)c3c(=O)o2)O[C@@H]1CO
Activity [1]: inactive | Activity [2]: inactive | MIC [3]: inactive | IC50 [4]: Not Active | Activity [5]: inactive

Nc1nc2c(ncn2COCCO)c(=O)[nH]1 [ACYCLOVIR]
IC50 [4, 8]: 6.86 µg/mL (≈ 30.5 µM)

NNC(=O)c1ccncc1 [ISONIAZID]
MIC [3]: 0.023 µg/mL (≈ 0.168 µM)

O=c1oc(CO)cc2cc(O)cc(O)c12
MIC [3]: 25 µg/mL (≈ 120 µM) | IC50 [4, 8]: 50 µg/mL (≈ 240 µM) | Activity [5]: inactive

Cc1c2ccncc2c(C)c2c1[nH]c1ccccc12 [ELLIPTECINE]
IC50 [7]: 1.16 µg/mL (≈ 4.71 µM)

Cc1cc2cc(O)cc(O)c2c(=O)o1
Activity [1]: inactive | Activity [2]: inactive | MIC [3]: inactive | IC50 [4]: Not Active | Activity [5]: inactive

CO[C@H]1[C@H](O)[C@@H](O)[C@H](Oc2cc(O)c3c(=O)oc(CO)cc3c2)O[C@@H]1CO
Activity [1]: inactive | Activity [6]: inactive | Activity [2]: inactive | MIC [3]: inactive | IC50 [4]: Not Active | Activity [5]: inactive

C[C@H]1[C@@H](O)O[C@@H]2O[C@@]3(C)CC[C@H]4[C@H](C)CC[C@@H]1[C@@]24OO3 [ARTENIMOL]
IC50 [2]: 0.0011 µg/mL (≈ 0.00387 µM)
